From ChEMBL document CHEMBL4651402, “Screening of ~5500 FDA-approved drugs and clinical candidates for anti-SARS-CoV-2 activity” (2021)
Bridge positions count the residues as written; N and C are the ends. Square brackets hold non-standard residues; d marks the D form. Peptide text beside a SMILES is read from it. * marks the point of attachment. NH(β-GlcNAc) = CC(=O)N[C@@H]1[C@@H](O)[C@H](O)[C@@H](CO)O[C@H]1N*; Dap = NC[C@H](N)C(=O)O

Tested on: SARS-CoV-2
Assay: microbe, parasite or virus in culture
Conditions: Severe acute respiratory syndrome coronavirus 2, Vero C1008, 48 h

SMILES | IC50 | IC50 (read-out: pIC50 (converted))
CCCCCCCCCC(=O)N[C@@H](Cc1c[nH]c2ccccc12)C(=O)N[C@H](CC(N)=O)C(=O)N[C@@H](CC(=O)O)C(=O)N[C@@H]1C(=O)NCC(=O)N[C@@H](CCCN)C(=O)N[C@@H](CC(=O)O)C(=O)N[C@H](C)C(=O)N[C@@H](CC(=O)O)C(=O)NCC(=O)N[C@H](CO)C(=O)N[C@@H]([C@H](C)CC(=O)O)C(=O)N[C@@H](CC(=O)c2ccccc2N)C(=O)O[C@@H]1C | > 20 µM | > 20 µM
CCC[C@]1(c2cccc(O)c2)CCN(C)C[C@@H]1C | > 20 µM | > 20 µM
C=CCc1ccccc1OCC(O)CNC(C)C (stereo unspecified) [ALPRENOLOL] | > 20 µM | > 20 µM
O=c1c(-c2ccc(O)cc2)coc2c(C3O[C@H](CO)[C@@H](O)[C@H](O)[C@H]3O)c(O)ccc12 (stereo partly specified) | > 20 µM | > 20 µM
COC1=CC(=O)O[C@@H](/C=C/c2ccccc2)C1 (racemic) [KAVAIN] | > 20 µM | > 20 µM
CC(=O)N[C@@H]1[C@@H](O)[C@H](O)[C@@H](CO)O[C@H]1NC(=O)C[C@@H]1NC(=O)[C@H](CC(C)C)NC(=O)[C@@H]2CNC(=O)C[C@H](NC1=O)C(=O)N[C@@H](Cc1c[nH]c3ccccc13)C(=O)N[C@@H](Cc1ccccc1)C(=O)N2 [NEPADUTANT] (cyclo(D(NH(β-GlcNAc))DWF[Dap]L); lactam 2-5) | > 20 µM | > 20 µM
Cc1cnc(C(=O)N[C@H]2CCCCC/C=C\[C@@H]3C[C@@]3(C(=O)NS(=O)(=O)C3CC3)NC(=O)[C@@H]3C[C@@H](Oc4nc5ccccc5c5ccccc45)CN3C2=O)cn1 | > 20 µM | > 20 µM
C[C@@H]1CN(Cc2ncccn2)C[C@H]1c1nc2c(cnn2C2CCOCC2)c(=O)[nH]1 [EDELINONTRINE] | > 20 µM | > 20 µM
COc1ccccc1N1CCN(CCCC(=O)c2ccc(F)cc2)CC1 [FLUANISONE] | > 20 µM | > 20 µM
CC(=O)O[C@]1(C(C)=O)CC[C@H]2[C@@H]3C=C(Cl)C4=CC(=O)[C@@H]5C[C@@H]5[C@]4(C)[C@H]3CC[C@@]21C [CYPROTERONE ACETATE] | > 20 µM | > 20 µM
NC(=O)CNC1Cc2ccccc2C1 | > 20 µM | > 20 µM
CNCCc1cnc[nH]1 | > 20 µM | > 20 µM
OC[C@H]1O[C@@H]2O[C@H]3[C@H](O)[C@@H](O)[C@@H](O[C@H]4[C@H](O)[C@@H](O)[C@@H](O[C@H]5[C@H](O)[C@@H](O)[C@@H](O[C@H]6[C@H](O)[C@@H](O)[C@@H](O[C@H]7[C@H](O)[C@@H](O)[C@@H](O[C@H]1[C@H](O)[C@H]2O)O[C@@H]7CO)O[C@@H]6CO)O[C@@H]5CO)O[C@@H]4CO)O[C@@H]3CO [ALFADEX] | > 20 µM | > 20 µM
CCN(CC)CCNC(=O)COc1ccc(Cl)cc1 [CLOFEXAMIDE] | > 20 µM | > 20 µM
NCCc1c[nH]c2ccc(O)cc12 [SEROTONIN] | > 20 µM | > 20 µM
Clc1cccc(N2CCNCC2)c1 [CHLOROPHENYLPIPERAZINE] | > 20 µM | > 20 µM
CC1(C)CC(=O)c2c(C(F)(F)F)nn(-c3ccc(C(N)=O)c(N[C@H]4CC[C@H](OC(=O)CN)CC4)c3)c2C1 [SNX 5422] | > 20 µM | > 20 µM
CN1CC[C@]2(C)c3cc(OC(=O)Nc4ccccc4)ccc3N(C)[C@H]12 [BUNTANETAP] | > 20 µM | > 20 µM
NC1=NCC(c2ccc(Cl)cc2)O1 (stereo unspecified) [CLOMINOREX] | > 20 µM | > 20 µM
CC(C(=O)O)c1ccc2c(c1)Cc1ccccc1-2 (stereo unspecified) [CICLOPROFEN] | > 20 µM | > 20 µM

SMILES | IC50 | IC50 (read-out: pIC50 (converted))
Cc1ccc(C)c(OCCCC(C)(C)C(=O)O)c1 [GEMFIBROZIL] | > 20 µM | > 20 µM
COc1cc(=O)n(C)c2c(OCC(O)C(C)(C)O)cccc12 (stereo unspecified) | > 20 µM | > 20 µM
CC(C)C(C)/C=C/C(C)C1CCC2C3=CC=C4CC(O)CCC4(C)C3CCC21C (stereo unspecified) | > 20 µM | > 20 µM
Cc1ccc(C(=O)Nc2ccc(Oc3cc4cnn(C)c4cc3-c3cn[nH]c3)c(F)c2)c(=O)n1-c1ccc(F)cc1 [MERESTINIB] | > 20 µM | > 20 µM
COc1ccccc1N1CCN(CCn2c(=O)[nH]c3ccccc3c2=O)CC1 | > 20 µM | > 20 µM
CC(=O)OCC(=O)[C@H]1CC[C@H]2[C@@H]3CC=C4C[C@@H](O)CC[C@]4(C)[C@H]3CC[C@]12C | > 20 µM | > 20 µM
NS(=O)(=O)c1ccc(N2CCN(CC[C@@H]3OCCc4ccccc43)CC2)cc1 [SONEPIPRAZOLE] | > 20 µM | > 20 µM
CC(C)(CO)[C@@H](O)C(=O)NCCCO [DEXPANTHENOL] | > 20 µM | > 20 µM
C=CC(=O)Nc1ccc2ncnc(Nc3ccc(OCc4cccc(F)c4)c(Cl)c3)c2c1 [ALLITINIB] | > 20 µM | > 20 µM
CCN(CC)CCNC(=O)c1c(C)[nH]c(/C=C2\C(=O)Nc3ccc(F)cc32)c1C [SUNITINIB] | > 20 µM | > 20 µM
NC1CC1c1ccccc1 (stereo unspecified) | > 20 µM | > 20 µM
COc1cc(Cc2cnc(N)nc2N)cc(OC)c1SC [METIOPRIM] | > 20 µM | > 20 µM
CCCCc1nc2cc(/C=C/C(=O)NO)ccc2n1CCN(CC)CC [PRACINOSTAT] | > 20 µM | > 20 µM
CCCCNC(=O)NS(=O)(=O)c1ccc(C)cc1 [TOLBUTAMIDE] | > 20 µM | > 20 µM
CN1C[C@H](C(=O)N[C@]2(C)O[C@@]3(O)[C@@H]4CCCN4C(=O)[C@H](Cc4ccccc4)N3C2=O)C=C2c3cccc4[nH]cc(c34)C[C@H]21 [ERGOTAMINE] | > 20 µM | > 20 µM
CCC1(CC)C(=O)C=CNC1=O [PYRITHYLDIONE] | > 20 µM | > 20 µM
CC(C)(C)C(=O)NCCCC(=O)O [PIVAGABINE] | > 20 µM | > 20 µM
O=C(Cn1c2ccccc2c2c(N3CCCC3)nc(N3CCCC3)nc21)N1CCCC1 | > 20 µM | > 20 µM
Cc1cc(C(=O)NCCc2ccc(S(=O)(=O)NC(=O)NN3CCCCCC3)cc2)no1 [GLISOXEPIDE] | > 20 µM | > 20 µM
Nc1ccc(S(=O)(=O)c2ccc(N)cc2)cc1 [DAPSONE] | > 20 µM | > 20 µM

SMILES | IC50 | IC50 (read-out: pIC50 (converted))
NC(=O)c1ncn([C@@H]2O[C@H](CO)[C@@H](O)[C@H]2O)n1 [RIBAVIRIN] | > 50.1 µM | > 50.1 µM
CC1=CCC2C3Cc4ccc(O)c5c4C2(CCN3C)C1O5 (stereo unspecified) | > 20 µM | > 20 µM
C=CCOC(Cn1ccnc1)c1ccc(Cl)cc1Cl (stereo unspecified) [ENILCONAZOLE] | > 20 µM | > 20 µM
CC[N+](C)(C)Cc1ccccc1Br [BRETYLIUM] | > 20 µM | > 20 µM
Cc1ccn(-c2cc(Cl)ccc2[C@@H](Oc2cc(-c3ccc(C[C@H](N)C(=O)O)cc3)nc(N)n2)C(F)(F)F)n1 [TELOTRISTAT] | > 20 µM | > 20 µM
Cc1cccc(C)c1NC1=NCCCS1 [XYLAZINE] | > 20 µM | > 20 µM
CNC(=O)CCN1CCN(CCC=C2c3ccccc3Sc3ccc(Cl)cc32)CC1 | > 20 µM | > 20 µM
O=C1CC[C@@H](C(=O)O)N1 [PIDOLIC ACID] | > 20 µM | > 20 µM
O=C(O)c1ccc(NC2OC(CO)C(O)C(O)C2O)cc1 (stereo unspecified) | > 20 µM | > 20 µM
COc1ccc2c(OC)c3ccoc3nc2c1OC [SKIMMIANINE] | > 20 µM | > 20 µM
N[C@@H](Cc1ccc(O)c(O)c1)C(=O)O [LEVODOPA] | > 20 µM | > 20 µM
Cc1cn([C@@H]2C[C@H](O)[C@@H](CO)O2)c(=O)[nH]c1=O | > 20 µM | > 20 µM
CCCS(=O)(=O)N[C@H]1C[C@@H](N(C)c2ncnc3[nH]ccc23)C1 [ABROCITINIB] | > 20 µM | > 20 µM
NCCc1c[nH]c2ccccc12 [TRYPTAMINE] | > 20 µM | > 20 µM
COc1ccc(S(=O)(=O)N2C(=O)[C@@](c3ccccc3OC)(N3C[C@H](O)C[C@H]3C(=O)N(C)C)c3cc(Cl)ccc32)c(OC)c1 | > 20 µM | > 20 µM
C[C@@H]1CC(=O)NN=C1c1ccc(NN=C(C#N)C#N)cc1 [LEVOSIMENDAN] | > 20 µM | > 20 µM
CCCC(=O)Nc1ncnc2c1ncn2[C@@H]1O[C@@H]2COP(=O)(O)O[C@H]2[C@H]1OC(=O)CCC [BUCLADESINE] | > 20 µM | > 20 µM
CCCC(=O)O[C@H]1CN2CC[C@H](O)[C@@H]2[C@@H](O)[C@@H]1O [CELGOSIVIR] | > 20 µM | > 20 µM
